Assay results from patent US11566002B2, “Substituted tetrahydrocyclopenta[C]pyrroles, substituted dihydropyrrolizines, analogues thereof, and methods using same” (priority 2018, dated 2023).
pEC50: −log10 of the molar value.

test system: HBV rcDNA; experiment: HepDE19 assay with bDNA quantitation of HBV rcDNA; format: cell-based, hepatitis B virus; details: HepDE19 cells, Tet-free medium, 7 day-incubation, rcDNA measured by Quantigene 2.0 bDNA assay, top concentration 25 μM; read-out: DE-19 bDNA EC50
Procedure: HepDE19 Assay with bDNA Quantitation of HBV rcDNA:
HepDE19 cell culture system is a HepG2 (human hepatocarcinoma) derived cell line that supports HBV DNA replication and cccDNA formation in a tetracycline (Tet)-regulated manner and produces HBV rcDNA and a detectable reporter molecule dependent on the production and maintenance of cccDNA (Guo, et al., 2007, J. Virol. 81:12472-12484).
HepDE19 (50,000 cells/well) were plated in 96-well collagen-coated tissue-culture treated microtiter plates in DMEM/F12 medium supplemented with 10% fetal bovine serum, 1% penicillin-streptomycin and 1 μg/mL tetracycline and incubated in a humidified incubator at 37° C. and 5% CO2 overnight. Next day, the cells were switched to fresh medium without tetracycline and incubated for 4 hours at 37° C. and 5% CO2. The cells were treated with fresh Tet-free medium with compounds at concentrations starting at 25 μM and a serial, ½ log, 8-point, titration series in duplicate. The final DMSO concentration in the assay was 0.5%. The plates were incubated for 7 days in a humidified incubator at 37° C. and 5% CO2. Following a 7 day-incubation, the level of rcDNA present in the inhibitor-treated wells was measured using a Quantigene 2.0 bDNA assay kit (Affymetrix, Santa Clara, Calif.) with HBV specific custom probe set and manufacturers instructions. Concurrently, the effect of compounds on cell viability was assessed using replicate plates, plated at a density of 5,000 cells/well and incubated for 4 days, to determine the ATP content as a measure of cell viability using the cell-titer glo reagent (CTG; Promega Corporation, Madison, Wis.) as per manufacturer's instructions. The plates were read using a Victor luminescence plate reader (PerkinElmer Model 1420 Multilabel counter) and the relative luminescence units (RLU) data generated from each well was calculated as % inhibition of the untreated control wells and analyzed using XL-Fit module in Microsoft Excel to determine EC50 and EC90 (bDNA) and CC50 (CTG) values using a 4-parameter curve fitting algorithm.
Representative compounds of the invention were tested for their abilities to inhibit formation of relaxed circular DNA (rcDNA) in a HepDE19 assay, as described elsewhere herein.

First: Cc1n[nH]nc1COC(=O)NC1CCc2c1cn(C)c2C(=O)Nc1ccc(F)c(Cl)c1 (single isomer, unassigned) [Compound 138, (5-Methyl-2H-1,2,3-triazol-4-yl)methyl (1-((3-chloro-4-fluorophenyl)carbamoyl)-2-methyl-2,4,5,6-tetrahydrocyclopenta[c]pyrrol-4-yl)carbamate]
Second: Cn1cc2c(c1C(=O)Nc1ccc(F)c(Cl)c1)CCC2NC(=O)OCc1c[nH]nn1 (single isomer, unassigned) [Compound 60, (1H-1,2,3-Triazol-4-yl)methyl (1-((3-chloro-4-fluorophenyl)carbamoyl)-2-methyl-2,4,5,6-tetrahydrocyclopenta[c]pyrrol-4-yl)carbamate]
The pEC50 of the first is 1.15 log units lower: 6.07 for the first, 7.22 for the second.

Compared with Cc1c2c(c(C(=O)Nc3ccc(F)c(Cl)c3)n1C)CCC2NC(=O)OCc1c[nH]nn1 (single isomer, unassigned) [Compound 130, (1H-1,2,3-Triazol-4-yl)methyl (1-((3-chloro-4-fluorophenyl)carbamoyl)-2,3-dimethyl-2,4,5,6-tetrahydrocyclopenta[c]pyrrol-4-yl)carbamate], Cn1cnc(COC(=O)NC2CCc3c2c(Cl)n(C)c3C(=O)Nc2ccc(F)c(Cl)c2)n1 (single isomer, unassigned) [Compound 51, (1-Methyl-1H-1,2,4-triazol-3-yl)methyl (3-chloro-1-((3-chloro-4-fluorophenyl)carbamoyl)-2-methyl-2,4,5,6-tetrahydrocyclopenta[c]pyrrol-4-yl)carbamate] is 2.95 log units higher in pEC50: 5.05 for the first, 8.00 for the second. The second is the more potent here.

Compared with CCn1cc2c(c1C(=O)Nc1ccc(F)c(Cl)c1)CCC2NS(=O)(=O)C1CC1 (single isomer, unassigned) [Compound 15, N-(3-Chloro-4-fluorophenyl)-4-(cyclopropanesulfonamido)-2-ethyl-2,4,5,6-tetrahydrocyclopenta[c]pyrrole-1-carboxamide], Cn1cc2c(c1C(=O)Nc1ccc(F)c(Cl)c1)CCC2NC(=O)OCC#CC1CC1 (single isomer, unassigned) [Compound 114, 3-Cyclopropylprop-2-yn-1-yl (1-((3-chloro-4-fluorophenyl)carbamoyl)-2-methyl-2,4,5,6-tetrahydrocyclopenta[c]pyrrol-4-yl)carbamate] is higher in pEC50: no more than 4.60 for the first, 6.33 for the second. The second is the more potent here.

CCn1cc2c(c1C(=O)Nc1ccc(F)c(Cl)c1)CCC2NC(=O)OCc1ncn(C)n1 (single isomer, unassigned) [Compound 19, (1-Methyl-1H-1,2,4-triazol-3-yl)methyl (1-((3-chloro-4-fluorophenyl)carbamoyl)-2-ethyl-2,4,5,6-tetrahydrocyclopenta[c]pyrrol-4-yl)carbamate] and Cn1cnc(COC(=O)NC2CCCCc3c2cn(C)c3C(=O)Nc2ccc(F)c(Cl)c2)n1 (single isomer, unassigned) [Compound 89, (1-Methyl-1H-1,2,4-triazol-3-yl)methyl (1-((3-chloro-4-fluorophenyl)carbamoyl)-2-methyl-2,4,5,6,7,8-hexahydrocyclohepta[c]pyrrol-4-yl)carbamate] are within 0.2 log units of each other in pEC50: 5.68 for the first, 5.54 for the second.

Going from Cn1cnc(COC(=O)NC2CCc3c2c(Cl)n(C)c3C(=O)Nc2ccc(F)c(Cl)c2)n1 (single isomer, unassigned) [Compound 52, (1-Methyl-1H-1,2,4-triazol-3-yl)methyl (3-chloro-1-((3-chloro-4-fluorophenyl)carbamoyl)-2-methyl-2,4,5,6-tetrahydrocyclopenta[c]pyrrol-4-yl)carbamate] to Cn1cnc(COC(=O)NC2CCc3c2c(Br)n(C)c3C(=O)Nc2ccc(F)c(Cl)c2)n1 (single isomer, unassigned) [Compound 47, (1-Methyl-1H-1,2,4-triazol-3-yl)methyl (3-bromo-1-((3-chloro-4-fluorophenyl)carbamoyl)-2-methyl-2,4,5,6-tetrahydrocyclopenta[c]pyrrol-4-yl)carbamate], the pEC50 falls from 6.51 to 5.51 (1.00 log units).

Going from Cn1cc(COC(=O)NC2CCc3c2cn(C)c3C(=O)Nc2ccc(F)c(Cl)c2)nn1 (single isomer, unassigned) [Compound 117, (1-Methyl-1H-1,2,3-triazol-4-yl)methyl (1-((3-chloro-4-fluorophenyl)carbamoyl)-2-methyl-2,4,5,6-tetrahydrocyclopenta[c]pyrrol-4-yl)carbamate] to Cn1cnc(COC(=O)NC2CCc3c2c(C2CCC2)n(C)c3C(=O)Nc2ccc(F)c(Cl)c2)n1 (single isomer, unassigned) [Compound 97, (1-Methyl-1H-1,2,4-triazol-3-yl)methyl (1-((3-chloro-4-fluorophenyl)carbamoyl)-3-cyclobutyl-2-methyl-2,4,5,6-tetrahydrocyclopenta[c]pyrrol-4-yl)carbamate], the pEC50 falls from 5.21 to no more than 4.60.

Cn1c(C(=O)Nc2ccc(F)c(Cl)c2)c2c(c1C1CC1)C(NC(=O)OCc1nc[nH]n1)CC2 (single isomer, unassigned) [Compound 99, (1H-1,2,4-Triazol-3-yl)methyl (1-((3-chloro-4-fluorophenyl)carbamoyl)-3-cyclopropyl-2-methyl-2,4,5,6-tetrahydrocyclopenta[c]pyrrol-4-yl)carbamate] gave a pEC50 of 6.48.

same assay, conditions: Hepatitis B virus, HepDE19, 168 h, HepDE19 cells, Tet-free medium, 7 day-incubation, rcDNA measured by Quantigene 2.0 bDNA assay, top concentration 25 μM; read-out: DE-19 bDNA EC50

Going from Cn1ccc(COC(=O)NC2CCCc3c2cn(C)c3C(=O)Nc2ccc(F)c(Cl)c2)n1 (single isomer, unassigned) [Compound 31, (1-Methyl-1H-pyrazol-3-yl)methyl (1-((3-chloro-4-fluorophenyl)carbamoyl)-2-methyl-4,5,6,7-tetrahydro-2H-isoindol-4-yl)carbamate] to Cn1cc2c(c1C(=O)Nc1ccc(F)c(Cl)c1)CCCC2N (single isomer, unassigned) [Compound 75, 4-Amino-N-(3-chloro-4-fluorophenyl)-2-methyl-4,5,6,7-tetrahydro-2H-isoindole-1-carboxamide], the pEC50 falls from 6.30 to 5.68 (0.62 log units). The first is the more potent here.

Going from Cn1cnc(COC(=O)NC2CCc3c2cn(C)c3C(=O)Nc2ccnc(C(F)F)c2)n1 (single isomer, unassigned) [Compound 81, (1-methyl-1H-1,2,4-triazol-3-yl)methyl (1-((2-(difluoromethyl)pyridin-4-yl)carbamoyl)-2-methyl-2,4,5,6-tetrahydrocyclopenta[c]pyrrol-4-yl)carbamate] to CC(C)OC(=O)C1(COC(=O)NC2CCc3c2cn(C)c3C(=O)Nc2ccc(F)c(Cl)c2)CC(F)(F)C1 (racemic) [Compound 46, isopropyl 1-((((1-((3-chloro-4-fluorophenyl)carbamoyl)-2-methyl-2,4,5,6-tetrahydrocyclopenta[c]pyrrol-4-yl)carbamoyl)oxy)methyl)-3,3-difluorocyclobutane-1-carboxylate], the pEC50 falls from 6.22 to 5.64 (0.58 log units). The first is the more potent here.

Cn1cc2c(c1C(=O)Nc1ccc(F)c(Cl)c1)CCC2=O [Compound 44, N-(3-chloro-4-fluorophenyl)-2-methyl-4-oxo-2,4,5,6-tetrahydrocyclopenta[c]pyrrole-1-carboxamide] was tested, and the pEC50 was 4.72.

same assay, conditions: Hepatitis B virus, HepDE19, 168 h, read-out: DE-19 bDNA EC50 (μM), HepDE19 cells, Tet-free medium, 7 day-incubation, rcDNA measured by Quantigene 2.0 bDNA assay, top concentration 25 μM

COC(=O)NC1CCCc2c1cn(C)c2C(=O)Nc1ccc(F)c(Cl)c1 (single isomer, unassigned) [Compound 74, Methyl (1-((3-chloro-4-fluorophenyl)carbamoyl)-2-methyl-4,5,6,7-tetrahydro-2H-isoindol-4-yl)carbamate] gave an EC50 of 0.61 µM.

same assay, conditions: read-out: DE-19 bDNA EC50; HepDE19 cells, Tet-free medium, 7 day-incubation, rcDNA measured by Quantigene 2.0 bDNA assay, top concentration 25 μM

First: Cn1cnc(COC(=O)NC2CCc3c2c(-c2ccccc2)n(C)c3C(=O)Nc2ccc(F)c(Cl)c2)n1 (single isomer, unassigned) [Compound 108, (1-Methyl-1H-1,2,4-triazol-3-yl)methyl (1-((3-chloro-4-fluorophenyl)carbamoyl)-2-methyl-3-phenyl-2,4,5,6-tetrahydrocyclopenta[c]pyrrol-4-yl)carbamate]
Second: CC#CCOC(=O)NC1CCc2c1cn(C)c2C(=O)Nc1ccc(F)c(Cl)c1 (single isomer, unassigned) [Compound 110, But-2-yn-1-yl (1-((3-chloro-4-fluorophenyl)carbamoyl)-2-methyl-2,4,5,6-tetrahydrocyclopenta[c]pyrrol-4-yl)carbamate]
The pEC50 of the first is 0.54 log units lower: 5.28 for the first, 5.82 for the second. The second is the more potent here.

Compound COC(=O)NC1CCCCc2c1cn(C)c2C(=O)Nc1ccc(F)c(Cl)c1 (single isomer, unassigned) [Compound 85, Methyl (1-((3-chloro-4-fluorophenyl)carbamoyl)-2-methyl-2,4,5,6,7,8-hexahydrocyclohepta[c]pyrrol-4-yl)carbamate] has a pEC50 of 5.82.
